Source: patent US20240246966A1, “NEW PYRAZOLO[1,5-a] PYRIMIDINE DERIVATIVES AS SIGMA LIGANDS” (ACONDICIONAMIENTO TARRASENSE, priority 2021, published 2024)

Key:
Human σ2/TMEM97 receptor = molecular target: T1, Human σ2/TMEM97 receptor (Homo sapiens, UniProt Q5BJF2); test: Binding assay to human σ2/TMEM97 receptor ([3H]-DTG, transfected HEK-293 membranes); details: human σ2/TMEM97, [3H]-DTG 10 nM, binding expressed as Ki, read-out: Binding σ-2
T1 construct: expressed in transfected cells; host or cells: HEK-293
Protocol: Binding Assay to Human ρ2/TMEM97 Receptor
Transfected HEK-293 membranes (15 μg) were incubated with 10 nM [^3H]-1,3-Di-o-tolylguanidine ( DTG) in assay buffer containing Tris-HCl 50 mM at pH 8.0. NSB (non-specific binding) was measured by adding 10 μM haloperidol. The binding of the test compound was measured at either one concentration (% inhibition at 1 or 10 μM) or five different concentrations to determine affinity values (Ki). Plates were incubated at 25° C. for 120 minutes. After the incubation period, the reaction mix was transferred to MultiScreen HTS, FC plates (Millipore), filtered and washed 3 times with ice-cold 10 mM Tris-HCL (pH 8.0). Filters were dried and counted at approximately 40% efficiency in a MicroBeta scintillation counter (Perkin-Elmer) using EcoScint liquid scintillation cocktail.

Human σ1 Receptor = molecular target: T2, Human σ1 Receptor (Homo sapiens, UniProt Q99720); test: Human σ1 receptor radioligand assay ([3H](+)-pentazocine, transfected HEK-293 membranes); details: human σ1, [3H](+)-pentazocine 5 nM, binding expressed as Ki, read-out: Binding σ-1
T2 construct: expressed in transfected cells; host or cells: HEK-293
Protocol: Human σ1 Receptor Radioligand Assay
Transfected HEK-293 membranes (7 μg) were incubated with 5 nM of [^3H](+)-pentazocine in assay buffer containing Tris-HCl 50 mM at pH 8. NBS (non-specific binding) was measured by adding 10 μM haloperidol. The binding of the test compound was measured at either one concentration (% inhibition at 1 or 10 μM) or five different concentrations to determine affinity values (Ki). Plates were incubated at 37° C. for 120 minutes. After the incubation period, the reaction mix was then transferred to MultiScreen HTS, FC plates (Millipore), filtered and plates were washed 3 times with ice-cold 10 mM Tris-HCL (pH 7.4). Filters were dried and counted at approximately 40% efficiency in a MicroBeta scintillation counter (Perkin-Elmer) using EcoScint liquid scintillation cocktail.

T2 sequence (Q99720 whole entry): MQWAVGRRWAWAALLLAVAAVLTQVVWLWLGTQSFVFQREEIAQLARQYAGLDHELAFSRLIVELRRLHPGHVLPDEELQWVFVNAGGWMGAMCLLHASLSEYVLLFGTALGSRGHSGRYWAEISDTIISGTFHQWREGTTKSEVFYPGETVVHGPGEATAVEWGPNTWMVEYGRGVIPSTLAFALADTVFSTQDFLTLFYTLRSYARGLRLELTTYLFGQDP
T1 sequence (Q5BJF2 whole entry): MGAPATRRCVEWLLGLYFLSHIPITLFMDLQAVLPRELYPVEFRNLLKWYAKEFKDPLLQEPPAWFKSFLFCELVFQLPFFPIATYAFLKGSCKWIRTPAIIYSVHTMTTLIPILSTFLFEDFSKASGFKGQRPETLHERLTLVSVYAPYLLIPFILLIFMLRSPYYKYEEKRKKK

Row | SMILES | Ki (Human σ2/TMEM97 receptor) | Ki (Human σ1 Receptor)
1 | COCC1CCN(Cc2cnc3c(ccn3-c3cccnc3C(F)(F)F)c2)CC1 [Example 44, 5-((4-(Methoxymethyl)piperidin-1-yl)methyl)-1-(2-(trifluoromethyl)pyridin-3-yl)-1H-pyrrolo[2,3-b]pyridine] | 0.1 to 0.5 µM | < 0.1 µM
2 | COC1CCN(Cc2cnc3c(-c4ccnc(C)c4)cnn3c2)CC1 [Example 23, 6-((4-Methoxypiperidin-1-yl)methyl)-3-(2-methylpyridin-4-yl)pyrazolo[1,5-a]pyrimidine] | > 1 µM | 0.1 to 0.5 µM
3 | FC(F)(F)c1cc(-n2ccc3cc(CN4CC5(CCOCC5)C4)cnc32)ccn1 [Example 47, 2-((1-(2-(Trifluoromethyl)53yridine-4-yl)-1H-pyrrolo[2,3-b]53yridine-5-yl)methyl)-7-oxa-2-azaspiro[3.5]nonane] | < 0.1 µM | < 0.1 µM
4 | FC(F)(F)c1cccc(-c2cnn3cc(CN4CCC5(CC4)COC5)cnc23)n1 [Example 14, 7-((3-(6-(Trifluoromethyl)pyridin-2-yl)pyrazolo[1,5-a]pyrimidin-6-yl)methyl)-2-oxa-7-azaspiro[3.5]nonane] | 0.5 to 1 µM | < 0.1 µM
5 | FC(F)(F)c1cc(-c2cnn3cc(CN4CCC5(CCOC5)CC4)cnc23)ccn1 [Example 10, 8-((3-(2-(Trifluoromethyl)pyridin-4-yl)pyrazolo[1,5-a]pyrimidin-6-yl)methyl)-2-oxa-8-azaspiro[4.5]decane] | > 1 µM | < 0.1 µM
6 | COCC1CCN(Cc2cnc3c(-c4ccnc(C(F)(F)F)c4)cnn3c2)CC1 [Example 28, 6-((4-(Methoxymethyl)piperidin-1-yl)methyl)-3-(2-(trifluoromethyl)pyridin-4-yl)pyrazolo[1,5-a]pyrimidine] | 0.5 to 1 µM | < 0.1 µM
7 | FC(F)(F)c1cc(-c2cnn3cc(CN4CCC5(CC4)COC5)cnc23)ccn1 [Example 9, 7-((3-(2-(Trifluoromethyl)pyridin-4-yl)pyrazolo[1,5-a]pyrimidin-6-yl)methyl)-2-oxa-7-azaspiro[3.5]nonane] | > 1 µM | < 0.1 µM
8 | FC(F)(F)c1ccc(-n2ccc3cc(CN4CCC5(CC4)COC5)cnc32)cn1 [Example 42, 7-((1-(6-(Trifluoromethyl)pyridin-3-yl)-1H-pyrrolo[2,3-b]pyridin-5-yl)methyl)-2-oxa-7-azaspiro[3.5]nonane] | 0.1 to 0.5 µM | < 0.1 µM
9 | FC(F)(F)c1cc(-n2ccc3cc(CN4CCC5(CC4)COC5)cnc32)ccn1 [Example 38, 7-((1-(2-(Trifluoromethyl)pyridin-4-yl)-1H-pyrrolo[2,3-b]pyridin-5-yl)methyl)-2-oxa-7-azaspiro[3.5]nonane] | 0.1 to 0.5 µM | < 0.1 µM
10 | FC(F)(F)c1cc(-c2cnn3cc(CN4CCC5(CCO5)CC4)cnc23)ccn1 [Example 7, 7-((3-(2-(Trifluoromethyl)pyridin-4-yl)pyrazolo[1,5-a]pyrimidin-6-yl)methyl)-1-oxa-7-azaspiro[3.5]nonane] | > 1 µM | 0.1 to 0.5 µM
11 | FC(F)(F)c1cc(-n2ccc3cc(CN4CCCOCC4)cnc32)ccn1 [Example 50, 4-((1-(2-(Trifluoromethyl)pyridin-4-yl)-1H-pyrrolo[2,3-b]pyridin-5-yl)methyl)-1,4-oxazepane] | > 1 µM | < 0.1 µM
12 | COCC1CCN(Cc2cnc3c(-c4ccnc(C)c4)cnn3c2)CC1 [Example 25, 6-((4-(Methoxymethyl)piperidin-1-yl)methyl)-3-(2-methylpyridin-4-yl)pyrazolo[1,5-a]pyrimidine] | > 1 µM | < 0.1 µM
13 | CCN(CC)Cc1cnc2c(-c3ccnc(C(F)(F)F)c3)cnn2c1 [Example 12, N-Ethyl-N-((3-(2-(trifluoromethyl)pyridin-4-yl)pyrazolo[1,5-a]pyrimidin-6-yl)methyl)ethanamine] | > 1 µM | < 0.1 µM
14 | FC(F)(F)c1ccc(-c2cnn3cc(CN4CCC5(CC4)COC5)cnc23)cn1 [Example 13, 7-((3-(6-(Trifluoromethyl)pyridin-3-yl)pyrazolo[1,5-a]pyrimidin-6-yl)methyl)-2-oxa-7-azaspiro[3.5]nonane] | 0.5 to 1 µM | < 0.1 µM
15 | OCC1(CO)CCN(Cc2cnc3c(-c4ccnc(C(F)(F)F)c4)cnn3c2)CC1 [Example 59, (1-((3-(2-(Trifluoromethyl)pyridin-4-yl)pyrazolo[1,5-a]pyrimidin-6-yl)methyl)piperidine-4,4-diyl)dimethanol] | > 1 µM | < 0.1 µM
16 | FC1(F)CCN(Cc2cnc3c(-c4ccnc(C(F)(F)F)c4)cnn3c2)CC1 [Example 11, 6-((4,4-Difluoropiperidin-1-yl)methyl)-3-(2-(trifluoromethyl)pyridin-4-yl)pyrazolo[1,5-a]pyrimidine] | > 1 µM | 0.5 to 1 µM
17 | FC(F)(F)c1cc(-c2cnn3cc(CN4CCC(c5ccccc5)CC4)cnc23)ccn1 [Example 6, 6-((4-Phenylpiperidin-1-yl)methyl)-3-(2-(trifluoromethyl)pyridin-4-yl)pyrazolo[1,5-a]pyrimidine] | 0.1 to 0.5 µM | < 0.1 µM
18 | FC(F)(F)c1cc(-n2ccc3cc(CN4CCC5(CCOC5)CC4)cnc32)ccn1 [Example 43, 8-((1-(2-(Trifluoromethyl)pyridin-4-yl)-1H-pyrrolo[2,3-b]pyridin-5-yl)methyl)-2-oxa-8-azaspiro[4.5]decane] | 0.1 to 0.5 µM | < 0.1 µM
19 | Cc1cc(-c2cnn3cc(CN4CCCOCC4)cnc23)ccn1 [Example 24, 4-((3-(2-Methylpyridin-4-yl)pyrazolo[1,5-a]pyrimidin-6-yl)methyl)-1,4-oxazepane] | > 1 µM | 0.1 to 0.5 µM
20 | COC1CCN(Cc2cnc3c(-c4ccc(C(F)(F)F)nc4)cnn3c2)CC1 [Example 21, 6-((4-Methoxypiperidin-1-yl)methyl)-3-(6-(trifluoromethyl)pyridin-3-yl)pyrazolo[1,5-a]pyrimidine] | > 1 µM | < 0.1 µM
21 | FC(F)(F)c1ncccc1-n1ccc2cc(CN3CCC4(CCOCC4)CC3)cnc21 [Example 45, 9-((1-(2-(Trifluoromethyl)pyridin-3-yl)-1H-pyrrolo[2,3-b]pyridin-5-yl)methyl)-3-oxa-9-azaspiro[5.5]undecane] | 0.1 to 0.5 µM | < 0.1 µM
22 | c1ccc(C2CCN(Cc3cnc4c(-c5ccncc5)cnn4c3)CC2)cc1 [Example 5, 6-((4-Phenylpiperidin-1-yl)methyl)-3-(pyridin-4-yl)pyrazolo[1,5-a]pyrimidine] | > 1 µM | < 0.1 µM
23 | Fc1cnccc1-c1cnn2cc(CN3CCC4(CCO4)CC3)cnc12 [Example 8, 7-((3-(3-Fluoropyridin-4-yl)pyrazolo[1,5-a]pyrimidin-6-yl)methyl)-1-oxa-7-azaspiro[3.5]nonane] | > 1 µM | 0.5 to 1 µM
24 | N#Cc1ncccc1-n1ccc2cc(CN3CCC4(CCOCC4)CC3)cnc21 [Example 53, 3-(5-((3-Oxa-9-azaspiro[5.5]undecan-9-yl)methyl)-1H-pyrrolo[2,3-b]pyridin-1-yl) picolinonitrile] | 0.5 to 1 µM | < 0.1 µM
25 | FC(F)(F)c1cc(-c2cnn3cc(CN4CCCC4)cnc23)ccn1 [Example 1, 6-(Pyrrolidin-1-ylmethyl)-3-(2-(trifluoromethyl)pyridin-4-yl)pyrazolo[1,5-a]pyrimidine] | > 1 µM | < 0.1 µM
